# Data as given in patent publication US20110065916A1, “METHOD OF MAKING IMIDAZOAZEPINONE COMPOUNDS” (priority 2007, published 2011).
# Tested on: human T-bet
# Test: HEKT-bet-luc assay (normalized HEKT-bet IC50)
# Format: cell-based
# Details: Homo sapiens, HEK293, 24 h, Table 2, engineered HEK cells, compound 24 hours, normalized to reference ER-819544
# Method: HEKT-bet-luc assay: This assay measures a T-bet dependent reporter (luciferase) activity in engineered HEK cells that express a human T-bet and a T-box responsive element driving luciferase reporter. HEKT-bet cells were plated at 2×10^4/well in 96-well plate and compound was added into cell culture for 24 hours. Luciferase activity was measured by adding 50 μl of Steady-Glo reagent (Promega) and samples were read in Victor V reader (PerkinElmer). The activity of compound was determined by comparing compound treated samples to non-compound treated vehicle controls. The IC50 values were calculated utilizing a maximum value corresponding to the amount of luciferase in the absence of a test compound and a minimum value corresponding to a test compound value obtained at maximum inhibition.
# Determination of Normalized HEKT-bet IC50 values: Compounds were assayed in microtiter plates. Each plate included a reference compound which was ER-819544. The un-normalized IC50 value for a particular compound was divided by the IC50 value determined for the reference compound in the same microtiter plate to provide a relative potency value. The relative potency value was then multiplied by the established potency of the reference compound to provide the normalized HEKT-bet IC50 value. […] The IC50 values provided herein were obtained using this normalization method.
row,Compound,IC50 [nM]
1,COc1cc2c(c(OC)c1)C(C)(C)C=C1N(C2)C(=O)NC12CCN(Cc1ccccc1)CC2 [compound 819667],250

# Same assay, conditions: Homo sapiens, HEK293, 24 h, Table 4, engineered HEK cells, compound 24 hours, normalized to reference ER-819544
row,Compound,IC50 [nM]
1,CCN1C(=O)N2Cc3cc(OC)cc(OC)c3[C@H](C)C=C2C12CCN(Cc1cc(C)ccc1F)CC2 [ER-819947],2600
2,CCN1C(=O)N2Cc3cc(OC)cc(OC)c3[C@H](C)C=C2C12CCN(Cc1ccc(F)c(OC)c1)CC2 [ER-819948],> 10000
3,CCN1C(=O)N2Cc3cc(OC)cc(OC)c3[C@@H](C)C=C2C12CCN(Cc1cccc3nccnc13)CC2 [ER-819953-01],26
4,CCN1C(=O)N2Cc3cc(OC)cc(OC)c3[C@@H](C)C=C2C12CCN(Cc1cccc3ncccc13)CC2 [ER-819954-01],47
5,CCN1C(=O)N2Cc3cc(OC)cc(OC)c3[C@@H](C)C=C2C12CCN(Cc1cccc3cccnc13)CC2 [ER-819955-01],20
6,CCN1C(=O)N2Cc3cc(OC)cc(OC)c3[C@@H](C)C=C2C12CCN(Cc1ccnn1C)CC2 [ER-819958-01],79
7,CCN1C(=O)N2Cc3cc(OC)cc(OC)c3[C@@H](C)C=C2C12CCN(Cc1ccn(C)c1)CC2 [ER-819961-01],96
8,CCN1C(=O)N2Cc3cc(OC)cc(OC)c3[C@@H](C)C=C2C12CCN(Cc1nc3ccccc3[nH]1)CC2 [ER-819965-01],130
9,CCN1C(=O)N2Cc3cc(OC)cc(OC)c3[C@@H](C)C=C2C12CCN(Cc1ccc3[nH]ccc3c1)CC2 [ER-819966-01],48
10,CCN1C(=O)N2Cc3cc(OC)cc(OC)c3[C@@H](C)C=C2C12CCN(Cc1cn(C)nc1C)CC2 [ER-819971-01],34
11,CCN1C(=O)N2Cc3cc(OC)cc(OC)c3[C@@H](C)C=C2C12CCN(Cc1cc(C)nn1C)CC2 [ER-819973-01],30
12,CCN1C(=O)N2Cc3cc(OC)cc(OC)c3[C@@H](C)C=C2C12CCN(Cc1cnn(C)c1C)CC2 [ER-819976-01],23
13,CCN1C(=O)N2Cc3cc(OC)cc(OC)c3[C@@H](C)C=C2C12CCN(Cc1cccn1-c1cccnc1)CC2 [ER-819979-01],120
14,CCN1C(=O)N2Cc3cc(OC)cc(OC)c3[C@@H](C)C=C2C12CCN(Cc1nc3ccccc3o1)CC2 [ER-819981-01],200
15,CCN1C(=O)N2Cc3cc(OC)cc(OC)c3[C@@H](C)C=C2C12CCN(Cc1nccc(-c3ccccc3)n1)CC2 [ER-819985-01],130
16,CCN1C(=O)N2Cc3cc(OC)cc(OC)c3[C@@H](C)C=C2C12CCN(Cc1nc(OC)cc(OC)n1)CC2 [ER-820004-01],67
17,CCN1C(=O)N2Cc3cc(OC)cc(OC)c3[C@@H](C)C=C2C12CCN(Cc1cccn1CCC#N)CC2 [ER-820008-00],240
18,CCN1C(=O)N2Cc3cc(OC)cc(OC)c3[C@@H](C)C=C2C12CCN(Cc1nccn1OCc1ccccc1)CC2 [ER-820009-00],110
19,CCN1C(=O)N2Cc3cc(OC)cc(OC)c3[C@@H](C)C=C2C12CCN(Cc1cccn1-c1cc(C)on1)CC2 [ER-820017-01],69
20,CCN1C(=O)N2Cc3cc(OC)cc(OC)c3[C@@H](C)C=C2C12CCN(Cc1cccn1-c1cnccn1)CC2 [ER-820020-02],180
21,CCN1C(=O)N2Cc3cc(OC)cc(OC)c3[C@@H](C)C=C2C12CCN(Cc1cc(OC)c(F)c(OC)c1)CC2 [ER-824214-00],29

# Same assay, conditions: Table 4, engineered HEK cells, compound 24 hours, normalized to reference ER-819544
row,Compound,IC50 [nM]
1,CCN1C(=O)N2Cc3cc(OC)cc(OC)c3[C@@H](C)C=C2C12CCN(Cc1nccn1C)CC2 [ER-819957-01],55
